# Assay results from patent publication US20240400553A1, “AMINE BASED MATRIPTASE 2 INHIBITORS AND USES THEREOF” (Disc Medicine, Inc., priority 2023, published 2024).
# Biological target: T1, Human Recombinant Matriptase 2 (Homo sapiens, UniProt Q8IU80)
# T1 construct: made in house
# T1 sequence (Q8IU80 1-811): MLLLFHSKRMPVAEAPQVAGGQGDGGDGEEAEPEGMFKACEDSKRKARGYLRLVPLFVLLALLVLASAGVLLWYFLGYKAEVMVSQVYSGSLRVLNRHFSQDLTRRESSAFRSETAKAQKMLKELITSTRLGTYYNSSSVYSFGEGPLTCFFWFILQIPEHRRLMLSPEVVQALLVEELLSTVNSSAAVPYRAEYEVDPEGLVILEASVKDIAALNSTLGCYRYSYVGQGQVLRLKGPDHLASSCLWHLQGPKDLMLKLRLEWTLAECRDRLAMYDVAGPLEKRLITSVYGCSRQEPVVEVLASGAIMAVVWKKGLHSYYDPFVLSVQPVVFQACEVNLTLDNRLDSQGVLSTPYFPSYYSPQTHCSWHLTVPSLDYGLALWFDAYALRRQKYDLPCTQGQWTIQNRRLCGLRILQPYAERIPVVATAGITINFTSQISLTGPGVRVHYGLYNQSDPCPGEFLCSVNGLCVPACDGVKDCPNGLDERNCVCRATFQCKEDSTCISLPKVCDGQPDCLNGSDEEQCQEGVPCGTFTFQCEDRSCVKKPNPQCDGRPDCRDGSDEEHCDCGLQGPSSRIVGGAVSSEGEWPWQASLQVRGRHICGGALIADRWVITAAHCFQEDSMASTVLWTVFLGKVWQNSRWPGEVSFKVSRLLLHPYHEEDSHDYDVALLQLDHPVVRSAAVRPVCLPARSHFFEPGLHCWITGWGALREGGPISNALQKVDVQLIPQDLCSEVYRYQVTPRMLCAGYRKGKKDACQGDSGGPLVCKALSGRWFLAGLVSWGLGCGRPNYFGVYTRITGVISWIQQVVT
# Assay: Matriptase 2 inhibition, fluorescence based assay (Method I)
# Format: biochemical
# Conditions: Table A; Ki of Matriptase-2; read-out: Mat-2 Ki
# Method in brief: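 In-house recombinant enzyme (3.5 nM), preincubated 30 min with compound, then Boc-Gln-Ala-Arg-AMC substrate (62 μM) in 50 mM Tris pH 7.5, 150 mM NaCl, 0.01% gelatin, 1% DMSO, 25 °C. Fluorescence (Ex 360/Em 480 nm) read 60 min after substrate; IC50 from variable-slope sigmoidal fit of % inhibition.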
row,Ki,SMILES
1,≤ 100 nM,"Cc1cccc(C)c1CS(=O)(=O)Nc1cc(Cn2c(C(=O)NCCN3CCOCC3)cc3ccc(CN)nc32)c2ccccc2c1 [Compound 196, 6-(aminomethyl)-1-({3-[(2,6-dimethylphenyl)-methanesulfonamido]-naphthalen-1-yl}meth-yl)-N-[2-(morpholin-4-yl)ethyl]-1H-pyrrolo-[2,3-b]pyridine-2-car-boxamide]"
2,≤ 100 nM,"CC(=O)N(C)CCOC(=O)c1cc2ccc(CN)nc2n1Cc1cc(NS(=O)(=O)Cc2c(C)cccc2C)cc2ccccc12 [Compound 197, 2-(N-methylacetamido)-ethyl 6-(aminomethyl)-1-({3-[(2,6-dimethylphen-yl)methanesulfonamido]-naphthalen-1-yl}methyl)-1H-pyrrolo[2,3-b]pyr-idine-2-carboxylate]"

# Same assay, conditions: Table A; Ki of Matriptase-2 given as class symbols; read-out: Mat-2 Ki
row,SMILES,Ki
1,"CN1CCC(COC(=O)c2cc3ccc(CN)nc3n2Cc2cc(NS(=O)(=O)Cc3ccc(F)cc3)cc3ccccc23)CC1 [Compound 206, (1-methylpiperidin-4-yl)-methyl 6-(aminomethyl)-1-({3-[(4-fluorophenyl)-methanesulfonamido]-naphthalen-1-yl}meth-yl)-1H-pyrrolo[2,3-b]-pyridine-2-carboxylate]",≤ 100 nM
2,"CN1CCC(COC(=O)c2cc3ccc(CN)nc3n2Cc2cc(NS(=O)(=O)Cc3ccoc3)cc3ccccc23)CC1 [Compound 207, (1-methylpiperidin-4-yl)-methyl 6-(aminomethyl)-1-({3-[(furan-3-yl)meth-anesulfonamido]naph-thalen-1-yl}methyl)-1H-pyrrolo[2,3-b]pyridine-2-carboxylate]",≤ 100 nM
3,"NCc1ccc2cc(C(=O)Nc3nnn[nH]3)n(Cc3cc(NS(=O)(=O)CC[C@@H]4CCCN4)cc4ccccc34)c2n1 [Compound 208, 6-(aminomethyl)-1-[(3-(2-[(2S)-pyrrolidin-2-yl]ethanesulfonamido}-naphthalen-1-yl)methyl]-N-(1H-1,2,3,4-tetrazol-5-yl)-1H-pyrrolo[2,3-b]-pyridine-2-carboxamide]",≤ 100 nM
4,"CN1CCC(COC(=O)c2cc3ccc(CN)nc3n2Cc2cc(NS(=O)(=O)Cc3ccccc3C(F)(F)F)cc3ccccc23)CC1 [Compound 209, (1-methylpiperidin-4-yl)-methyl 6-(aminomethyl)-1-[(3-{[2-(trifluorometh-yl)phenyl]methanesul-fonamido}naphthalen-1-yl)methyl]-1H-pyrrolo-[2,3-b]pyridine-2-car-boxylate]",≤ 100 nM
5,"CN1CCC(COC(=O)c2cc3ccc(CN)nc3n2Cc2cc(NS(=O)(=O)Cc3cnsc3)cc3ccccc23)CC1 [Compound 210, (1-methylpiperidin-4-yl)-methyl 6-(aminomethyl)-1-({3-[(1,2-thiazol-4-yl)-methanesulfonamido]-naphthalen-1-yl}methyl)-1H-pyrrolo[2,3-b]pyr-idine-2-carboxylate]",≤ 100 nM
6,"COCCN1CCC(CS(=O)(=O)Nc2cc(Cn3c(C(=O)O)cc4ccc(CN)nc43)c3ccccc3c2)CC1 [Compound 211, 6-(aminomethyl)-1-[(3-{[1-(2-methoxyethyl)-piperidin-4-yl]methane-sulfonamido}naphthalen-1-yl)methyl]-1H-pyr-rolo[2,3-b]pyridine-2-carboxylic acid]",≤ 100 nM
7,"NCc1ccc2cc(C(N)=O)n(Cc3cc(NS(=O)(=O)CC[C@@H]4CCCN4)cc4ccccc34)c2n1 [Compound 213, 6-(aminomethyl)-1-[(3-{2-[(2S)-pyrrolidin-2-yl]ethanesulfonamido}-naphthalen-1-yl)methyl]-1H-pyrrolo[2,3-b]pyr-idine-2-carboxamide]",≤ 100 nM
8,"CNC(=O)c1cc2ccc(CN)nc2n1Cc1cc(NS(=O)(=O)CC2CCNCC2)cc2ccccc12 [Compound 215, 6-(aminomethyl)-N-methyl-1-({3-[(piperi-din-4-yl)methanesulfon-amido]naphthalen-1-yl}-methyl)-1H-pyrrolo[2,3-b]pyridine-2-carboxamide]",100 to 500 nM
9,"NCc1ccc2cc(C(=O)O)n(Cc3cc(NS(=O)(=O)CC4CCNCC4)cc4ccccc34)c2n1 [Compound 216, 6-(aminomethyl)-1-({3-[(piperidin-4-yl)methane-sulfonamido]naphthalen-1-yl}methyl)-1H-pyr-rolo[2,3-b]pyridine-2-carboxylic acid]",100 to 500 nM
10,"NCc1ccc2cc(C(=O)O)n(Cc3cc(NS(=O)(=O)CC[C@H]4CCCN4)cc4ccccc34)c2n1 [Compound 217, 6-(aminomethyl)-1-[(3-{2-[(2R)-pyrrolidin-2-yl]ethanesulfonamido}-naphthalen-1-yl)methyl]-1H-pyrrolo[2,3-b]pyr-idine-2-carboxylic acid]",100 to 500 nM
11,"CN(C)CCCCS(=O)(=O)Nc1cc(Cn2c(C(=O)O)cc3ccc(CN)nc32)c2ccccc2c1 [Compound 219, 6-(aminomethyl)-1-({3-[4-(dimethylamino)-butanesulfonamido]naph-thalen-1-yl}methyl)-1H-pyrrolo[2,3-b]pyridine-2-carboxylic acid]",100 to 500 nM

# More lines, now with the values ahead:
row,Ki,SMILES
1,≤ 100 nM,"Cc1cccc(C)c1CS(=O)(=O)Nc1cc(Cn2c(C(=O)OCC3CCN(C=O)CC3)cc3ccc(CN)nc32)c2ccccc2c1 [Compound 198, (1-formylpiperidin-4-yl)-methyl 6-(aminomethyl)-1-({3-[(2,6-dimethyl-phenyl)methanesulfon-amido]naphthalen-1-yl}-methyl)-1H-pyrrolo[2,3-b]pyridine-2-carboxylate]"
2,100 to 500 nM,"Cc1cccc(C)c1CS(=O)(=O)Nc1cc(Cn2c(C(=O)OCCN3CCOCC3)cc3ccc(CN)nc32)c2ccccc2c1 [Compound 199, 2-(morpholin-4-yl)ethyl 6-(aminomethyl)-1-({3-[(2,6-dimethylphenyl)-methanesulfonamido]-naphthalen-1-yl}meth-yl)-1H-pyrrolo[2,3-b]-pyridine-2-carboxylate]"
3,100 to 500 nM,"CNCCOC(=O)c1cc2ccc(CN)nc2n1Cc1cc(NS(=O)(=O)Cc2c(C)cccc2C)cc2ccccc12 [Compound 200, 2-(methylamino)ethyl 6-(aminomethyl)-1-({3-[(2,6-dimethylphenyl)-methanesulfonamido]-naphthalen-1-yl}meth-yl)-1H-pyrrolo[2,3-b]-pyridine-2-carboxylate]"
4,100 to 500 nM,"Cc1cccc(C)c1CS(=O)(=O)Nc1cc(Cn2c(C(=O)OCCN(C)C)cc3ccc(CN)nc32)c2ccccc2c1 [Compound 201, 2-(dimethylamino)ethyl 6-(aminomethyl)-1-({3-[(2,6-dimethylphenyl)-methanesulfonamido]-naphthalen-1-yl}methyl)-1H-pyrrolo[2,3-b]pyr-idine-2-carboxylate]"
5,500 to 3000 nM,"CCOC(=O)c1cc2ccc(CN)nc2n1Cc1cc(NS(=O)(=O)Cc2c(C)cccc2C)cc2ccccc12 [Compound 202, ethyl 6-(aminomethyl)-1-({3-[(2,6-dimethyl-phenyl)methanesulfon-amido]naphthalen-1-yl}-methyl)-1H-pyrrolo[2,3-b]pyridine-2-carboxylate]"
6,≤ 100 nM,CN1CCC(COC(=O)c2cc3ccc(CN)nc3n2Cc2cc(NS(=O)(=O)Cc3ccccc3O)cc3ccccc23)CC1 [Compound 203]
7,≤ 100 nM,Cc1ccccc1CS(=O)(=O)Nc1cc(Cn2c(C(=O)OCC3CCN(C)CC3)cc3ccc(CN)nc32)c2ccccc2c1 [Compound 204]
8,≤ 100 nM,"CN1CCC(COC(=O)c2cc3ccc(CN)nc3n2Cc2cc(NS(=O)(=O)Cc3ccccc3F)cc3ccccc23)CC1 [Compound 205, (1-methylpiperidin-4-yl)methyl 6-(aminometh-yl)-1-({3-[(2-fluorophen-yl)methanesulfonamido]-naphthalen-1-yl}methyl)-1H-pyrrolo[2,3-b]pyr-idine-2-carboxylate]"
9,≤ 100 nM,"Cc1ccccc1CS(=O)(=O)Nc1cc(Cn2c(C(=O)O)cc3ccc(CN)nc32)c2ccccc2c1 [Compound 212, 6-(aminomethyl)-1-({3-[(2-methylphenyl)meth-anesulfonamido]naph-thalen-1-yl}methyl)-1H-pyrrolo[2,3-b]pyridine-2-carboxylic acid]"
10,≤ 100 nM,"NCc1ccc2cc(C(=O)O)n(Cc3cc(NS(=O)(=O)CCN4CCNCC4)cc4ccccc34)c2n1 [Compound 214, 6-(aminomethyl)-1-({3-[2-(piperazin-1-yl)-ethanesulfonamido]-naphthalen-1-yl}meth-yl)-1H-pyrrolo[2,3-b]-pyridine-2-carboxylic acid]"
11,100 to 500 nM,"N#Cc1cccc(CS(=O)(=O)Nc2cc(Cn3c(C(=O)O)cc4ccc(CN)nc43)c3ccccc3c2)c1 [Compound 218, 6-(aminomethyl)-1-({3-[(3-cyanophenyl)meth-anesulfonamido]naph-thalen-1-yl}methyl)-1H-pyrrolo[2,3-b]pyridine-2-carboxylic acid]"
